Our source for the IC50 and Activity values is ChEMBL document CHEMBL1143044, “The isolation of secondary metabolites and in vitro potent anti-cancer activity of clerodermic acid from Enicosanthum membranifolium” (Bioorg Med Chem, 2007).

Calls of active or inactive are those of the source. The calls are words filed in the database; no cut-off is given here.

What all share (assay type): functional, cell-based
Assay [1] deals with HL-60. Put plainly: Growth inhibition of human HL60 cells by Trypan blue exclusion test.
Assay [2] relates to HL-60. As to the kind of experiment: Induction of apoptosis in human HL60 cells assessed as nucleosomal DNA fragmentation after 24 hrs.
Assay [3] relates to HL-60. As to the kind of experiment: Induction of apoptosis in human HL60 cells at 200 uM in presence of 100 uM caspase inhibitor ZVADFMK by Trypan blue exclusion test.

For `C[C@@H]1CC[C@@]2(C)C(C(=O)O)=CCCC2[C@@]1(C)CCC1=CC(=O)OC1` (stereo partly drawn) [CLERODERMIC ACID], in the assay with HL-60 [1], half-maximal inhibition (IC50) required 68 µM. Also, the result in the assay with HL-60 [2] and with HL-60 [3] was Active.
